These results are taken from ChEMBL document CHEMBL1145059, “Bispyridinium cyclophanes: novel templates for human choline kinase inhibitors” (J Med Chem, 2003).

The target of assay [1] is Choline kinase alpha (Homo sapiens, UniProt P35790). In words: Ex vivo inhibitory activity against human choline kinase was determined.
The test system of assay [2] is HT-29. The experiment in a line: In vitro inhibition of proliferation in ras transformed cells on the HT-29 (Human tumor) cell line. The assay is classed as functional, cell-based.

A value given as a limit tells only on which side of the number the result lay.

Sequence of Choline kinase alpha (P35790 whole entry): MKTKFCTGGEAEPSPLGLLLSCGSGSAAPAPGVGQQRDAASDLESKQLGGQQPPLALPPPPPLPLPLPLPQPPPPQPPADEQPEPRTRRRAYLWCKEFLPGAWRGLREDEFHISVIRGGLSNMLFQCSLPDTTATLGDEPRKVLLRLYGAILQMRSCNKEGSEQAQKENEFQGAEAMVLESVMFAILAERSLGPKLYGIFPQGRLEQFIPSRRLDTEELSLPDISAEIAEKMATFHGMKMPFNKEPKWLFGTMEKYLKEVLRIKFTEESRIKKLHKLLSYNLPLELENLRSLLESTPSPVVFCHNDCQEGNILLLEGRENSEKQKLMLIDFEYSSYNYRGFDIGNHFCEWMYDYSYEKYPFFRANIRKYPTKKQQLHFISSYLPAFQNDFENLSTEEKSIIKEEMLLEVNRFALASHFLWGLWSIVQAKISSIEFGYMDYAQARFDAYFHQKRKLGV

In the case of `c1cc2cc(c1)CNc1cc[n+](cc1)Cc1cccc(c1)C[n+]1ccc(cc1)NC2`, the IC50 is 13.2 µM in assay [1] and > 100 µM in assay [2].
For the compound `c1cc2cc(c1)CNc1cc[n+](cc1)Cc1ccc(cc1)C[n+]1ccc(cc1)NC2`, the results for the IC50 in assay [1] and in assay [2] were 0.3 µM and 28.8 µM, respectively.
As to `c1cc2ccc1CNc1cc[n+](cc1)Cc1ccc(cc1)C[n+]1ccc(cc1)NC2`, the IC50 in assay [1] was found to be 2.1 µM; in assay [2], 36.9 µM.
Compound `CN(c1ccc(Cl)cc1)c1cc[n+](Cc2cc(C[n+]3ccc(N(C)c4ccc(Cl)cc4)cc3)cc(C[n+]3ccc(N(C)c4ccc(Cl)cc4)cc3)c2)cc1` registered an IC50 in assay [1] of 1.4 µM.
For `c1cc2cc(c1)C[n+]1ccc(cc1)NCc1ccc(cc1)CNc1cc[n+](cc1)C2`, the IC50 in assay [1] amounted to 24.8 µM; in assay [2], 58.6 µM.

Usually IC50 stands for the concentration needed to halve the response being measured. High values mean weaker potency in that assay, low ones greater potency in that assay.
